From BindingDB's records for doi:10.7270/Q2TX3CTT (Broad Institute, 2010)

Target: Glycogen synthase kinase-3 beta (Homo sapiens, UniProt P49841)
Experiment: concentration-response blocking of human GSK3B – biochemical, luminescence, cell-free homogeneous, retest, dose response (AID 434954)

Glycogen synthase kinase-3 beta, sequence (P49841 whole entry): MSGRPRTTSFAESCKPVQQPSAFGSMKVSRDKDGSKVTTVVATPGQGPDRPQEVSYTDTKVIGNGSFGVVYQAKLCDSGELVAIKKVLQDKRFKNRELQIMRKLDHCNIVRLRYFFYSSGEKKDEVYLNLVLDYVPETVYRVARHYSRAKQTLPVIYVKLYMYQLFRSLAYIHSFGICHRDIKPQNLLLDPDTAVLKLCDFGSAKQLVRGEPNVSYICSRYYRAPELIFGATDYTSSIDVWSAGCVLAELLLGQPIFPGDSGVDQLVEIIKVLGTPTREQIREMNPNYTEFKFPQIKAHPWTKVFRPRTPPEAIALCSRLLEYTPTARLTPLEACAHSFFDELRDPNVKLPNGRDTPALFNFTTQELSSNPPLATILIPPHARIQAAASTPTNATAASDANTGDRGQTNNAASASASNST

Structure (SMILES) | EC50
O=C1CCCC2=Nc3ncnn3C(c3cccs3)C12 (configuration not stated) [9-thiophen-2-yl-5,6,7,9-tetrahydro-1H-[1,2,4]triazolo[5,1-b]quinazolin-8-one] | > 300 µM
CCOc1ccc(-c2csc3[n+]2CC[N-]3)cc1[N+](=O)[O-] | > 300 µM
COC(=O)CSc1ccc2nnc(-c3ccc(OC)c(OC)c3)n2n1 | > 300 µM
O=c1cc(-c2ccc(O)c(O)c2)oc2cc(O)cc(O)c12 [2-(3,4-dihydroxyphenyl)-5,7-dihydroxy-4H-chromen-4-one] | 3.81 µM
COc1cccc2cc(C(=O)OC(C)C(=O)c3ccc(C)cc3)c(=O)oc12 (configuration not stated) | > 300 µM
Cc1[nH]nc2c1C(c1cccs1)C1C(=O)CC(C)(C)CC1=N2 (configuration not stated) [3,7,7-trimethyl-4-thiophen-2-yl-2,4,6,8-tetrahydro-1H-pyrazolo[3,4-b]quinolin-5-one] | 1.36 µM
O=C(Nc1ccccn1)Nc1ccccc1Cl | > 300 µM
COCCCNc1nc(N)c([N+](=O)[O-])c(NCC2CCCO2)n1 (configuration not stated) | 3.93 µM
c1cncc(-c2nc(NCC3CCCO3)c3ccccc3n2)c1 (configuration not stated) | > 300 µM
c1c2c(cc3sc(N4CCOCC4)nc13)OCCO2 [2-(4-morpholinyl)-6,7-dihydro-[1,4]dioxino[2,3-f][1,3]benzothiazole] | > 300 µM
Nc1nonc1-n1nnc(C(=O)NN=Cc2c(Cl)cccc2Cl)c1CN1CCOCC1 [1-(4-azanyl-1,2,5-oxadiazol-3-yl)-N-[[2,6-bis(chloranyl)phenyl]methylideneamino]-5-(morpholin-4-ylmethyl)-1,2,3-triazole-4-carboxamide] | 55.2 µM
CS(=O)(=O)N(Cc1ccccc1)c1ccc(C(=O)Nc2ccccc2Sc2ccccc2)cc1 [4-[methylsulfonyl-(phenylmethyl)amino]-N-(2-phenylsulfanylphenyl)benzamide] | > 300 µM
O=[N+]([O-])c1cc([N+](=O)[O-])c(N2CCCCCC2)cc1NCCO | 5.63 µM
COc1ccc(Nc2nc(N)c([N+](=O)[O-])c(NCCO)n2)cc1 [2-[6-Amino-2-(4-methoxy-phenylamino)-5-nitro-pyrimidin-4-ylamino]-ethanol] | 2.6 µM
CC(CC(=O)N1CCN(c2cccc(Cl)c2)CC1)S(=O)(=O)c1ccc2c(c1)NC(=O)CO2 (configuration not stated) [6-[4-[4-(3-chlorophenyl)piperazin-1-yl]-4-oxobutan-2-yl]sulfonyl-4H-1,4-benzoxazin-3-one] | > 300 µM
O=C(CN1C(=O)c2ccccc2C1=O)Nc1ccccc1F [2-[1,3-bis(oxidanylidene)isoindol-2-yl]-N-(2-fluorophenyl)ethanamide] | > 300 µM
O=C(CCc1ccccc1)Nc1ncc([N+](=O)[O-])s1 | > 300 µM
NS(=O)(=O)c1ccc(N=Nc2cnc(O)c(O)c2)cc1 [4-[(5,6-dioxo-3-pyridinyl)hydrazo]benzenesulfonamide] | > 300 µM
CCCn1c(SCC(=O)Nc2ccccc2OC)nnc1-c1ccco1 | > 300 µM

Structure (SMILES) | EC50
COc1ccc2c(CC(=O)Nc3ncc(C)s3)coc2c1 [2-(6-methoxy-1-benzofuran-3-yl)-N-(5-methyl-1,3-thiazol-2-yl)ethanamide] | > 300 µM
Cc1ccc(C)c(Nc2nc(-c3ccncc3)nc3ccccc23)c1 | > 300 µM
COc1ccc(Nc2nc(N)c([N+](=O)[O-])c(NC3CCCCC3)n2)cc1 | > 300 µM
CC(C)=CCc1c(O)cc2c(c1O)C(=O)CC(c1ccc(O)cc1)O2 (configuration not stated) [2-(4-hydroxyphenyl)-6-(3-methylbut-2-enyl)-5,7-bis(oxidanyl)-2,3-dihydrochromen-4-one] | > 300 µM
COC1=CC(=O)CC(C)C12Oc1cc(OC)cc(OC)c1C2=O (configuration not stated) [3',4,6-trimethoxy-5'-methyl-spiro[1-benzofuran-2,4'-cyclohex-2-ene]-1',3-dione] | > 300 µM
O=C1Nc2cc(C(=O)NCCCN3CCOCC3)ccc2S/C1=C/c1ccccc1F [(2E)-2-[(2-fluorophenyl)methylidene]-N-(3-morpholin-4-ylpropyl)-3-oxo-4H-1,4-benzothiazine-6-carboxamide] | 18.2 µM
CCCCc1cc(=O)oc2c(CN(C)C)c(O)ccc12 [4-butyl-8-[(dimethylamino)methyl]-7-hydroxy-1-benzopyran-2-one] | > 300 µM
CCn1c(=O)c(C(=O)NNC(=O)c2ccccc2)c(O)c2ccccc21 | > 300 µM
O=S(=O)(c1ccc(F)cc1)c1nc(-c2ccco2)oc1Nc1ccccc1 [4-(4-fluorophenyl)sulfonyl-2-(furan-2-yl)-N-phenyl-1,3-oxazol-5-amine] | > 300 µM
c1ccc(CSc2ccc3nnc(-c4ccccn4)n3n2)cc1 | > 300 µM
COc1ccc2nc(C)cc(Nc3ccc(N4CCN(C)CC4)cc3)c2c1 | > 300 µM
N#CC1=C2SCN(Cc3ccccc3)CN2C(=O)CC1c1cccs1 (configuration not stated) | 7.88 µM
COC(=O)c1sc(Nc2ccccc2)nc1C [2-anilino-4-methyl-5-thiazolecarboxylic acid methyl ester] | > 300 µM
O=C(COc1ccccc1[N+](=O)[O-])NN=Cc1ccccn1 [(2-Nitro-phenoxy)-acetic acid [1-pyridin-2-yl-meth-(E)-ylidene]-hydrazide] | > 300 µM
O=C(CSc1n[nH]c(=O)[nH]c1=O)c1ccc(Cl)cc1Cl [6-[2-(2,4-dichlorophenyl)-2-oxoethyl]sulfanyl-2H-1,2,4-triazine-3,5-dione] | > 300 µM
CC(=O)N1CCc2c(sc(NC(=O)Cc3ccc(F)cc3)c2C(N)=O)C1 [6-acetyl-2-[[2-(4-fluorophenyl)-1-oxoethyl]amino]-5,7-dihydro-4H-thieno[2,3-c]pyridine-3-carboxamide] | 47.2 µM
O=C(CSc1nnc(-c2ccco2)n1Cc1ccco1)N1CCOCC1 [2-(5-Furan-2-yl-4-furan-2-ylmethyl-4H-[1,2,4]triazol-3-ylsulfanyl)-1-morpholin-4-yl-ethanone] | > 300 µM
COc1ccc(C(=O)NC(=S)NC2CCCCC2)cc1 | > 300 µM
Nc1nc(Nc2ccccc2)nc(NCCO)c1[N+](=O)[O-] [2-(6-Amino-5-nitro-2-phenylamino-pyrimidin-4-ylamino)-ethanol] | 5.77 µM

The next lines start with the values.

EC50 | Structure (SMILES)
> 300 µM | Cc1ccc(-n2nc3c(N4CCC(C(=O)N5CCCCCC5)CC4)nnc(C)c3c2C)cc1 [MLS001028811]
94.6 µM | COc1cccc(/C=C2/Sc3ccc(C(=O)NCCN4CCCCCC4)cc3NC2=O)c1 [MLS001030753]
> 300 µM | CCOC(=O)c1cnc2ccccc2c1Nc1ccc(C(=O)O)cc1 [SMR000299060]
> 300 µM | N#Cc1c(Cl)nc(-c2cccnc2)nc1-c1ccccc1 [MLS001165453]
> 300 µM | CN(C)Cc1c(O)ccc2occ(C(=O)c3ccccc3)c12 [SMR000069709]
> 300 µM | Cn1nc(C(F)(F)F)c2cc(NC(=O)OCc3ccc(C(C)(C)C)cc3)sc21 [(4-tert-butylphenyl)methyl N-[1-methyl-3-(trifluoromethyl)thieno[2,3-c]pyrazol-5-yl]carbamate]
> 300 µM | CCn1c(SCC(=O)NNC(=O)c2ccc(C)cc2)nnc1C1CC1 [N'-[2-[(5-cyclopropyl-4-ethyl-1,2,4-triazol-3-yl)sulfanyl]acetyl]-4-methylbenzohydrazide]
6.11 µM | CN1CCN(/N=C2\C(=O)Nc3ccc([N+](=O)[O-])cc32)CC1 [SMR000347605]
28.5 µM | CCc1cc(=O)oc2cc(OC(C)=O)cc(OC(C)=O)c12 [(5-acetyloxy-4-ethyl-2-oxidanylidene-chromen-7-yl) ethanoate]
> 300 µM | COc1ccc(CN(CC(=O)NCc2ccco2)C(=O)CCC(=O)Nc2ccccn2)cc1 [N'-[2-(2-furanylmethylamino)-2-oxoethyl]-N'-[(4-methoxyphenyl)methyl]-N-(2-pyridinyl)butanediamide]
> 300 µM | CNCCCOc1cc(C)cc(C)c1C [N-methyl-3-(2,3,5-trimethylphenoxy)propan-1-amine;oxalic acid]
> 300 µM | COC(=O)c1ccccc1Nc1ccnc(Cl)n1 [methyl 2-[(2-chloropyrimidin-4-yl)amino]benzoate]
> 300 µM | CCCCn1nc(NC(=O)CCC)c2cc3cc(OC)ccc3nc21 [MLS001214871]
14.7 µM | CCC(C)Nc1nc(N)c([N+](=O)[O-])c(NCCO)n1 (configuration not stated) [MLS000332774]
> 300 µM | COCCOc1ccc(C(F)(F)F)cc1NC(=O)COC(=O)c1cc[n+]([O-])cc1 [[2-[2-(2-methoxyethoxy)-5-(trifluoromethyl)anilino]-2-oxoethyl] 1-oxidopyridin-1-ium-4-carboxylate]
> 300 µM | COC(CSc1nc(N)c2c3c(sc2n1)CN(C)CC3)OC [SMR000543145]
> 300 µM | Cc1ccc(Nc2nc(-c3ccncc3)nc3ccccc23)cc1 [MLS000769531]
> 300 µM | CCOC(=O)c1c(C)[nH]c(C(=O)CSc2nccc(C)n2)c1C [MLS000391683]
> 300 µM | COc1ccc(-c2cc(C(=O)N3CCN(C(=O)c4ccco4)CC3)[nH]n2)cc1 [SMR000623613]
9.23 µM | CCCCn1nc(NC(=O)c2cccs2)c2cc3cc(OC)ccc3nc21 [SMR000046614]
> 300 µM | Cc1ccccc1N(CC(=O)NN=Cc1cc(Br)c(C)o1)S(C)(=O)=O [N-[(4-bromo-5-methylfuran-2-yl)methylideneamino]-2-(2-methyl-N-methylsulfonylanilino)acetamide]
> 300 µM | O=C(NCCCN1CCN(Cc2ccccc2)CC1)C1CCN(S(=O)(=O)N2CCCC2)CC1 [N-[3-[4-(phenylmethyl)-1-piperazinyl]propyl]-1-(1-pyrrolidinylsulfonyl)-4-piperidinecarboxamide]
> 300 µM | COc1cccc2cc(CC(=O)c3cc(C)ccc3C)c(=O)oc12 [MLS001198676]
> 300 µM | CCOc1cc(C=NN=C(N)N)ccc1OCc1ccc(Cl)cc1 [N''-{4-[(4-chlorobenzyl)oxy]-3-ethoxybenzylidene}carbonohydrazonic diamide]
49.2 µM | COCCn1c(SCC(=O)Nc2ccc(Cl)cn2)nnc1-c1ccncc1 [N-(5-chloranylpyridin-2-yl)-2-[[4-(2-methoxyethyl)-5-pyridin-4-yl-1,2,4-triazol-3-yl]sulfanyl]ethanamide]
10.1 µM | COc1ccc(Nc2nc(N)c([N+](=O)[O-])c(NCc3ccccc3)n2)cc1 [MLS000332775]
> 300 µM | COc1ccc(-c2nn(-c3ccccc3)cc2C=Nn2cnnc2)cc1OC [SMR000066046]
7.15 µM | Oc1ccc(-c2nncn2-c2ccccc2)cc1 [SMR000274861]
> 300 µM | CCOC(=O)c1ccc(NC(=O)Nc2ccccn2)cc1 [MLS000679333]
